# Assay results as given in the NIST ThermoML archive (doi:10.1021/acs.jced.6b00365).
# Numbers after ± are expanded uncertainties.
# Details: dynamic light scattering
structure (smiles),measurement,setting,value
Cc1ccccc1 [toluene],thermal diffusivity,"302.9 K, Liquid",8.63e-08 ± 2.6e-09 m2/s
same,thermal diffusivity,"312.45 K, Liquid",8.33e-08 ± 2.5e-09 m2/s
same,thermal diffusivity,"323.07 K, Liquid",8.03e-08 ± 2.4e-09 m2/s
same,thermal diffusivity,"333.27 K, Liquid",7.77e-08 ± 2.4e-09 m2/s
same,thermal diffusivity,"343.52 K, Liquid",7.52e-08 ± 2.3e-09 m2/s
same,thermal diffusivity,"353.73 K, Liquid",7.3e-08 ± 2.2e-09 m2/s
same,thermal diffusivity,"363.73 K, Liquid",7.09e-08 ± 2.2e-09 m2/s
same,thermal diffusivity,"373.04 K, Liquid",6.9e-08 ± 2.1e-09 m2/s
same,thermal diffusivity,"382.94 K, Liquid",6.71e-08 ± 2.1e-09 m2/s
same,thermal diffusivity,"392.88 K, Liquid",6.52e-08 ± 2e-09 m2/s
same,thermal diffusivity,"402.93 K, Liquid",6.33e-08 ± 2e-09 m2/s
same,thermal diffusivity,"413.06 K, Liquid",6.15e-08 ± 1.9e-09 m2/s
same,thermal diffusivity,"422.73 K, Liquid",5.98e-08 ± 1.9e-09 m2/s
same,thermal diffusivity,"432.67 K, Liquid",5.81e-08 ± 1.8e-09 m2/s
same,thermal diffusivity,"442.68 K, Liquid",5.64e-08 ± 1.8e-09 m2/s
same,thermal diffusivity,"452.96 K, Liquid",5.48e-08 ± 1.7e-09 m2/s
same,thermal diffusivity,"462.99 K, Liquid",5.33e-08 ± 1.7e-09 m2/s
same,thermal diffusivity,"473.2 K, Liquid",5.19e-08 ± 1.7e-09 m2/s
same,thermal diffusivity,"482.98 K, Liquid",5.06e-08 ± 1.6e-09 m2/s
same,thermal diffusivity,"493.05 K, Liquid",4.94e-08 ± 1.6e-09 m2/s
same,thermal diffusivity,"503.17 K, Liquid",4.84e-08 ± 1.6e-09 m2/s
same,thermal diffusivity,"513.41 K, Liquid",4.74e-08 ± 1.5e-09 m2/s
same,thermal diffusivity,"523.38 K, Liquid",4.66e-08 ± 1.5e-09 m2/s
CCOC(C)(C)C [2-ethoxy-2-methylpropane],thermal diffusivity,"293.13 K, Liquid",5.67e-08 ± 1.8e-09 m2/s
same,thermal diffusivity,"303.09 K, Liquid",5.45e-08 ± 1.7e-09 m2/s
same,thermal diffusivity,"313.21 K, Liquid",5.16e-08 ± 1.7e-09 m2/s
same,thermal diffusivity,"323.18 K, Liquid",4.96e-08 ± 1.6e-09 m2/s
same,thermal diffusivity,"333.18 K, Liquid",4.79e-08 ± 1.5e-09 m2/s
same,thermal diffusivity,"338.25 K, Liquid",4.7e-08 ± 1.5e-09 m2/s
same,thermal diffusivity,"343.17 K, Liquid",4.64e-08 ± 1.5e-09 m2/s
same,thermal diffusivity,"348.15 K, Liquid",4.55e-08 ± 1.5e-09 m2/s
same,thermal diffusivity,"353.08 K, Liquid",4.49e-08 ± 1.5e-09 m2/s
same,thermal diffusivity,"358.19 K, Liquid",4.43e-08 ± 1.5e-09 m2/s
same,thermal diffusivity,"363.1 K, Liquid",4.38e-08 ± 1.4e-09 m2/s
same,thermal diffusivity,"368.12 K, Liquid",4.33e-08 ± 1.4e-09 m2/s
same,thermal diffusivity,"372.96 K, 4000 kPa, Liquid",4.4e-08 ± 1.4e-09 m2/s
same,thermal diffusivity,"373.11 K, Liquid",4.3e-08 ± 1.4e-09 m2/s
same,thermal diffusivity,"373.15 K, 7000 kPa, Liquid",4.47e-08 ± 1.5e-09 m2/s
same,thermal diffusivity,"373.16 K, 10000 kPa, Liquid",4.5e-08 ± 1.5e-09 m2/s
same,thermal diffusivity,"378.18 K, Liquid",4.26e-08 ± 1.4e-09 m2/s
same,thermal diffusivity,"383.14 K, Liquid",4.2e-08 ± 1.4e-09 m2/s
same,thermal diffusivity,"383.18 K, 10000 kPa, Liquid",4.45e-08 ± 1.5e-09 m2/s
same,thermal diffusivity,"383.35 K, 7000 kPa, Liquid",4.41e-08 ± 1.4e-09 m2/s
same,thermal diffusivity,"383.37 K, 4000 kPa, Liquid",4.34e-08 ± 1.4e-09 m2/s
same,thermal diffusivity,"388.07 K, Liquid",4.17e-08 ± 1.4e-09 m2/s
same,thermal diffusivity,"392.97 K, 7000 kPa, Liquid",4.35e-08 ± 1.4e-09 m2/s
same,thermal diffusivity,"393 K, 4000 kPa, Liquid",4.27e-08 ± 1.4e-09 m2/s
same,thermal diffusivity,"393.05 K, 10000 kPa, Liquid",4.4e-08 ± 1.4e-09 m2/s
same,thermal diffusivity,"393.06 K, Liquid",4.15e-08 ± 1.4e-09 m2/s
same,thermal diffusivity,"398.17 K, Liquid",4.1e-08 ± 1.4e-09 m2/s
same,thermal diffusivity,"402.94 K, 4000 kPa, Liquid",4.2e-08 ± 1.4e-09 m2/s
same,thermal diffusivity,"402.99 K, 7000 kPa, Liquid",4.28e-08 ± 1.4e-09 m2/s
same,thermal diffusivity,"403.09 K, 10000 kPa, Liquid",4.35e-08 ± 1.4e-09 m2/s
same,thermal diffusivity,"403.22 K, Liquid",4.08e-08 ± 1.4e-09 m2/s
same,thermal diffusivity,"408.16 K, Liquid",4.02e-08 ± 1.3e-09 m2/s
same,thermal diffusivity,"413.1 K, Liquid",4e-08 ± 1.3e-09 m2/s
same,thermal diffusivity,"413.25 K, 10000 kPa, Liquid",4.3e-08 ± 1.4e-09 m2/s
same,thermal diffusivity,"413.34 K, 7000 kPa, Liquid",4.21e-08 ± 1.4e-09 m2/s
same,thermal diffusivity,"413.35 K, 4000 kPa, Liquid",4.12e-08 ± 1.4e-09 m2/s
same,thermal diffusivity,"418.18 K, Liquid",3.97e-08 ± 1.3e-09 m2/s
same,thermal diffusivity,"421.78 K, 4000 kPa, Liquid",4.07e-08 ± 1.4e-09 m2/s
same,thermal diffusivity,"421.86 K, 7000 kPa, Liquid",4.16e-08 ± 1.4e-09 m2/s
same,thermal diffusivity,"422.25 K, 10000 kPa, Liquid",4.24e-08 ± 1.4e-09 m2/s
same,thermal diffusivity,"423.09 K, Liquid",3.95e-08 ± 1.3e-09 m2/s
same,thermal diffusivity,"428.08 K, Liquid",3.9e-08 ± 1.3e-09 m2/s
same,thermal diffusivity,"431.42 K, 4000 kPa, Liquid",4e-08 ± 1.3e-09 m2/s
same,thermal diffusivity,"431.52 K, 7000 kPa, Liquid",4.1e-08 ± 1.4e-09 m2/s
same,thermal diffusivity,"432.83 K, 10000 kPa, Liquid",4.18e-08 ± 1.4e-09 m2/s
same,thermal diffusivity,"433.07 K, Gas",3.03e-07 m2/s
same,thermal diffusivity,"433.18 K, Liquid",3.85e-08 ± 1.3e-09 m2/s
same,thermal diffusivity,"438.17 K, Liquid",3.82e-08 ± 1.3e-09 m2/s
same,thermal diffusivity,"442.12 K, 4000 kPa, Liquid",3.92e-08 ± 1.3e-09 m2/s
same,thermal diffusivity,"442.19 K, 7000 kPa, Liquid",4.04e-08 ± 1.3e-09 m2/s
same,thermal diffusivity,"442.53 K, 10000 kPa, Liquid",4.13e-08 ± 1.4e-09 m2/s
same,thermal diffusivity,"443.06 K, Liquid",3.77e-08 ± 1.3e-09 m2/s
same,thermal diffusivity,"443.25 K, Gas",2.57e-07 m2/s
same,thermal diffusivity,"448.18 K, Liquid",3.74e-08 ± 1.3e-09 m2/s
same,thermal diffusivity,"452.09 K, 4000 kPa, Liquid",3.85e-08 ± 1.3e-09 m2/s
same,thermal diffusivity,"452.26 K, 7000 kPa, Liquid",3.98e-08 ± 1.3e-09 m2/s
same,thermal diffusivity,"452.4 K, 10000 kPa, Liquid",4.08e-08 ± 1.4e-09 m2/s
same,thermal diffusivity,"453.13 K, Gas",2.14e-07 m2/s
same,thermal diffusivity,"453.18 K, Liquid",3.68e-08 ± 1.2e-09 m2/s
same,thermal diffusivity,"458.1 K, Liquid",3.61e-08 ± 1.2e-09 m2/s
same,thermal diffusivity,"462.41 K, 4000 kPa, Liquid",3.75e-08 ± 1.3e-09 m2/s
same,thermal diffusivity,"462.47 K, 7000 kPa, Liquid",3.92e-08 ± 1.3e-09 m2/s
same,thermal diffusivity,"462.95 K, 10000 kPa, Liquid",4.03e-08 ± 1.3e-09 m2/s
same,thermal diffusivity,"463.05 K, Gas",1.7e-07 m2/s
same,thermal diffusivity,"463.19 K, Liquid",3.53e-08 ± 1.2e-09 m2/s
same,thermal diffusivity,"466.12 K, Liquid",3.5e-08 ± 1.2e-09 m2/s
same,thermal diffusivity,"468.16 K, Gas",1.5e-07 m2/s
same,thermal diffusivity,"469.18 K, Liquid",3.45e-08 ± 1.2e-09 m2/s
same,thermal diffusivity,"472.09 K, Liquid",3.39e-08 ± 1.2e-09 m2/s
same,thermal diffusivity,"472.45 K, 4000 kPa, Liquid",3.65e-08 ± 1.3e-09 m2/s
same,thermal diffusivity,"472.63 K, 7000 kPa, Liquid",3.87e-08 ± 1.3e-09 m2/s
same,thermal diffusivity,"472.63 K, 10000 kPa, Liquid",3.99e-08 ± 1.3e-09 m2/s
same,thermal diffusivity,"473.25 K, Gas",1.28e-07 m2/s
same,thermal diffusivity,"475.06 K, Liquid",3.33e-08 ± 1.2e-09 m2/s
same,thermal diffusivity,"478.13 K, 10000 kPa, Liquid",3.97e-08 ± 1.3e-09 m2/s
same,thermal diffusivity,"478.14 K, 7000 kPa, Liquid",3.84e-08 ± 1.3e-09 m2/s
same,thermal diffusivity,"478.15 K, Liquid",3.25e-08 ± 1.1e-09 m2/s
same,thermal diffusivity,"478.2 K, 4000 kPa, Liquid",3.6e-08 ± 1.3e-09 m2/s
same,thermal diffusivity,"478.2 K, Gas",1.08e-07 m2/s
same,thermal diffusivity,"481.24 K, Liquid",3.16e-08 ± 1.1e-09 m2/s
same,thermal diffusivity,"482.44 K, 4000 kPa, Liquid",3.52e-08 ± 1.2e-09 m2/s
same,thermal diffusivity,"483.15 K, 7000 kPa, Liquid",3.82e-08 ± 1.3e-09 m2/s
same,thermal diffusivity,"483.18 K, Gas",8.76e-08 m2/s
same,thermal diffusivity,"483.2 K, 10000 kPa, Liquid",3.95e-08 ± 1.3e-09 m2/s
same,thermal diffusivity,"484.23 K, Liquid",3.05e-08 ± 1.1e-09 m2/s
same,thermal diffusivity,"487.17 K, Liquid",2.95e-08 ± 1.1e-09 m2/s
same,thermal diffusivity,"488.15 K, 7000 kPa, Liquid",3.79e-08 ± 1.3e-09 m2/s
same,thermal diffusivity,"488.25 K, Gas",6.52e-08 m2/s
same,thermal diffusivity,"488.65 K, 4000 kPa, Liquid",3.44e-08 ± 1.2e-09 m2/s
same,thermal diffusivity,"488.83 K, 10000 kPa, Liquid",3.93e-08 ± 1.3e-09 m2/s
same,thermal diffusivity,"490.09 K, Liquid",2.77e-08 ± 1e-09 m2/s
same,thermal diffusivity,"493.13 K, 4000 kPa, Liquid",3.34e-08 ± 1.2e-09 m2/s
same,thermal diffusivity,"493.14 K, Liquid",2.63e-08 ± 1e-09 m2/s
same,thermal diffusivity,"493.16 K, 7000 kPa, Liquid",3.77e-08 ± 1.3e-09 m2/s
same,thermal diffusivity,"493.22 K, Gas",3.68e-08 m2/s
same,thermal diffusivity,"493.3 K, 10000 kPa, Liquid",3.92e-08 ± 1.3e-09 m2/s
same,thermal diffusivity,"496.24 K, Liquid",2.27e-08 ± 9e-10 m2/s
